Data set [1] is described as follows: Cytotoxicity against mouse Hepa-1c1c7 cells after 48 hrs. The format is cell-based. The settings on record: read-out: LD50.
The target of data set [2] is NAD(P)H dehydrogenase [quinone] 1 (Mus musculus) (UniProt Q64669). Briefly: Induction of NQO1 activity in mouse Hepa-1c1c7 cells after 48 hrs by Prochaska method. Format: cell-based.
Data set [3] has the same target. The data set can be described thus: Induction of NQO1 activity in mouse hepatoma cells. The format is cell-based.
The nature of data set [4]: Antiinflammatory activity in mouse macrophages assessed as inhibition of IFN-gamma-induced nitric oxide production after 48 hrs by Griess method. The settings on record: Macrophage. The format is functional, cell-based.

For 40 molecules, CC50, CD and IC50 results are on record in ChEMBL document CHEMBL2429766, “Keap calm, and carry on covalently” (J Med Chem, 2013).

pIC50: −log10 of the molar value.

NAD(P)H dehydrogenase [quinone] 1 (Mus musculus), sequence (Q64669 whole entry): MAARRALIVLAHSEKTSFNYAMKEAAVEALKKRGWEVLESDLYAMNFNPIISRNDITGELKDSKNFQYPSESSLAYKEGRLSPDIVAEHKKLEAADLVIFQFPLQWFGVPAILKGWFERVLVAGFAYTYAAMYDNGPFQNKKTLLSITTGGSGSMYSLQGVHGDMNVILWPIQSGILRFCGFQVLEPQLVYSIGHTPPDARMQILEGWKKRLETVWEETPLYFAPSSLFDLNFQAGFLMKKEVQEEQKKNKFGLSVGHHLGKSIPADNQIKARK

For the molecule `CC[S+]([O-])C(=O)N(CCCC[S+](C)[O-])Cc1ccccc1` (stereo not given), in data set [1], the CC50 at 48 h is more than 200 µM. The molecule further returned a CD in data set [2] of 13 µM.
For `CC[S+]([O-])C(=O)N(CCCC[S+](C)[O-])C1CCCCC1` (stereo not given) the same measures were more than 200 µM and 64 µM.
With `CS(=O)(=O)[C@H]1CC[C@@H](N=C=S)CC1`, the CD in data set [3] was 0.4 µM.
The same measure, in the same setting: under `CC(=O)CCCCN=C=S` stands 0.2 µM; under `N#CCCCCN=C=S`, 2 µM.
Take `CCCN(CCCC[S+](C)[O-])C(=O)[S+]([O-])CC` (stereo not given): the CC50 at 48 h in data set [1] was more than 200 µM. The CD in data set [2] was found to be 35 µM.
With `C[S@+]([O-])CCCCN=C=S`, the CD in data set [3] was 0.2 µM.
The molecule `CS(=O)(=O)[C@H]1CC2CC1[C@H](N=C=S)C2` (relative stereo) returned a CD in data set [3] of 0.2 µM.
Still for that read-out and setting: under `O[C@@H]1CC2CC1C[C@@H]2N=C=S` (stereo not given in full) stands 19 µM; under `COC(=O)CCCCN=C=S`, 2.8 µM; under `O=[N+]([O-])[C@H]1CC2CC1C[C@@H]2N=C=S` (stereo not given in full), 1.1 µM.
With `CC1(C)CC[C@]2(C(=O)O)CC[C@]3(C)[C@H](C(=O)C=C4[C@@]5(C)C=C(C#N)C(=O)C(C)(C)[C@@H]5CC[C@]43C)[C@@H]2C1` [BARDOXOLONE], in data set [4], the pIC50 was 9.40.
Turning to `CC1(C)CC[C@]2(C(=O)O)CC[C@]3(C)C(=CC[C@@H]4[C@@]5(C)C=CC(=O)C(C)(C)[C@@H]5CC[C@]43C)[C@@H]2C1`, the pIC50 in data set [4] is 5.15.
`CS(=O)(=O)[C@H]1CC2CC1C[C@@H]2N=C=S` (stereo not given in full) registered a CD in data set [3] of 0.7 µM.
Turning to `CC[S+]([O-])C(=O)N(CCCC[S+](C)[O-])Cc1ccc(F)cc1F` (stereo not given), the CC50 at 48 h in data set [1] is more than 50 µM. The CD in data set [2] worked out at 7.3 µM.
In data set [3], `CC(=O)[C@H]1CC2CC1[C@H](N=C=S)C2` (relative stereo) showed a CD of 0.3 µM.
Consider `CC1(C)CC[C@]2(C(=O)O)CC[C@]3(C)[C@H](C(=O)C=C4[C@@]5(C)C=CC(=O)C(C)(C)[C@@H]5CC[C@]43C)[C@@H]2C1`, for which, in data set [4], the negative-log IC50 (pIC50) was 6.77.
Take `CP(C)(=O)CCCCN=C=S`: the CD in data set [3] is 0.4 µM.
Same read-out and setting: then `CCCCCCN=C=S`, with 15 µM; and `CS(=O)(=O)[C@@H]1CC2CC1[C@H](N=C=S)C2` (relative stereo), with 1 µM.
Molecule `COC(=O)[C@H]1CC2CC1[C@H](N=C=S)C2` (stereo not given in full) yielded a CD in data set [3] of 1.6 µM.
Regarding `CC[S+]([O-])C(=O)N(CCCC[S+](C)[O-])Cc1ccc(C(C)(C)C)cc1` (stereo not given), the CC50 at 48 h in data set [1] is 32 µM. For the same molecule, in data set [2], the CD was 3.8 µM.
As for `O=C(O)CCCCN=C=S`, the CD in data set [3] stood at 2.2 µM.
Same read-out and setting: then `CS(=O)(=O)[C@@H]1CCC[C@@H](CN=C=S)C1` (relative stereo), with 0.5 µM.
As to `CC1(C)CC[C@]2(C(=O)O)CC[C@]3(C)C(=CC(=O)[C@@H]4[C@@]5(C)C=CC(=O)C(C)(C)[C@@H]5CC[C@]43C)[C@@H]2C1`, in data set [4], the pIC50 was 5.85.
Same read-out and setting: under `CC1(C)CC[C@]2(C(=O)O)CC[C@]3(C)C(=CC[C@@H]4[C@@]5(C)CC[C@H](O)C(C)(C)[C@@H]5CC[C@]43C)[C@@H]2C1` [OLEANOLIC_ACID] stands less than 4.40.
The molecule `COC(=O)[C@H]1CC2CC1C[C@@H]2N=C=S` (stereo not given in full) yielded a CD in data set [3] of 0.7 µM.
On to `CC[S+]([O-])C(=O)N(CCCC[S+](C)[O-])c1ccccc1` (stereo not given), for which the CC50 at 48 h in data set [1] was more than 200 µM. In data set [2], this molecule registered a CD of 43 µM.
For `CC[S+]([O-])C(=O)N(CCCC[S+](C)[O-])Cc1ccc(-c2ccccc2)cc1` (stereo not given), the CC50 at 48 h in data set [1] was determined as 16 µM. The same molecule gave a CD in data set [2] of 2.8 µM.
In data set [3], `CC(O)[C@H]1CC2CC1C[C@@H]2N=C=S` (stereo not given in full) had a CD of 0.5 µM.
Turning to `CC1(C)CC[C@]2(C(=O)O)CC[C@]3(C)C(=CC[C@H]4C3(C)CC[C@H]3C(C)(C)C(=O)C(O)=C[C@@]34C)[C@@H]2C1` (single isomer, unassigned), the pIC50 in data set [4] is 4.43.
For the molecule `CSC(=O)CCCCN=C=S`, in data set [3], the CD was determined as 2.8 µM.
In turn, `CS(=O)(=O)[C@@H]1CCC[C@H](CN=C=S)C1` (relative stereo) showed a CD in data set [3] of 0.4 µM.
`CCCCC(=O)CCCCN=C=S`: the CD in data set [3] stood at 2 µM.
Turning to `CC[S+]([O-])C(=O)N(CCCC[S+](C)[O-])Cc1cccc2ccccc12` (stereo not given), the CC50 at 48 h in data set [1] is more than 50 µM. Also, in data set [2], the CD was found to be 5.3 µM.
The molecule `CC(=O)[C@@H]1CC2CC1[C@H](N=C=S)C2` (relative stereo) had a CD in data set [3] of 0.8 µM.
Same read-out and setting: under `N#C[C@H]1CC2CC1C[C@@H]2N=C=S` (stereo not given in full) stands 0.6 µM.
Consider `CC[S+]([O-])C(=O)N(C)CCCC[S+](C)[O-]` (stereo not given), for which the CC50 at 48 h in data set [1] was more than 200 µM. Also, the CD in data set [2] turned out to be 94 µM.
For `CC[S+]([O-])C(=O)N(CCCC[S+](C)[O-])C1CC1` (stereo not given) the same measures were more than 200 µM and 43 µM.
In data set [3], `CC(=O)[C@H]1CC2CC1C[C@@H]2N=C=S` (stereo not given in full) returned a CD of 0.4 µM.
